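The compound was tested at five concentrations on cells cultured in 96-well plates, with a 48-hour exposure period. GI50 is the concentration that inhibits growth by half. The concentration for full growth arrest is given as TGI.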
Tests used:
Test in all cases: inhibition of tumour cell growth, NCI panel, 48 h
786-0 renal = system: 786-0 renal
SNB-19 CNS = system: SNB-19 CNS
K-562 leukemia = system: K-562 leukemia
HS 578T breast = system: HS 578T breast
UACC-257 melanoma = system: UACC-257 melanoma
MDA-MB-435 = system: MDA-MB-435
SK-MEL-2 melanoma = system: SK-MEL-2 melanoma
SNB-75 CNS = system: SNB-75 CNS
HOP-92 NSCLC = system: HOP-92 NSCLC
OVCAR-4 ovarian = system: OVCAR-4 ovarian

With CC(=O)On1c(-c2ccccc2-c2nc3ccccc3n2OC(C)=O)nc2ccccc21 the TGI (786-0 renal) was > 100 µM, the TGI (SNB-19 CNS) was > 100 µM and the TGI (K-562 leukemia) was > 100 µM. The TGI (HS 578T breast) was > 100 µM, the TGI (UACC-257 melanoma) was > 100 µM and the TGI (MDA-MB-435) was > 100 µM. For the same compound, the TGI (SK-MEL-2 melanoma) was 88.6 µM and the TGI (SNB-75 CNS) was > 100 µM.
With COc1ccc2c(c1)CC[C@H](O)/C2=C/c1cc(OC)c(OC)c(OC)c1 the GI50 (786-0 renal) was 0.156 µM, the TGI (786-0 renal) was > 100 µM and the GI50 (SNB-19 CNS) was 0.201 µM. For the same compound, the TGI (SNB-19 CNS) was > 100 µM, the GI50 (K-562 leukemia) was 49.2 nM and the TGI (K-562 leukemia) was > 100 µM. The GI50 (HS 578T breast) was 0.101 µM, the TGI (HS 578T breast) was > 100 µM and the GI50 (HOP-92 NSCLC) was 16.3 µM. The TGI (HOP-92 NSCLC) was > 100 µM, the GI50 (SK-MEL-2 melanoma) was 17.8 µM and the TGI (SK-MEL-2 melanoma) was > 100 µM. The GI50 (OVCAR-4 ovarian) was 0.952 µM, the TGI (OVCAR-4 ovarian) was > 100 µM and the GI50 (SNB-75 CNS) was 63.8 nM. The TGI (SNB-75 CNS) was > 100 µM.
In the case of O=C1OC(O)C(Oc2c(Cl)cccc2Cl)=C1Cl (stereo not given), the TGI (786-0 renal) was 32.2 µM, the TGI (SNB-19 CNS) was 78.1 µM and the TGI (K-562 leukemia) was 48 µM. It also gave a TGI (HOP-92 NSCLC) of 41.9 µM, a TGI (UACC-257 melanoma) of 42.1 µM and a TGI (SK-MEL-2 melanoma) of 34.2 µM. For the same compound, the TGI (SNB-75 CNS) was 54.6 µM.
For COC(=O)C1[C@H](c2cc(OC)c(OC)c(OC)c2)OC(=O)C1(C(=O)OC)C(=O)c1ccc2c(c1)OCO2 (stereo not given in full), the TGI (786-0 renal) was > 100 µM, the TGI (SNB-19 CNS) was > 100 µM and the TGI (K-562 leukemia) was > 100 µM. For the same compound, the TGI (HOP-92 NSCLC) was > 100 µM, the TGI (UACC-257 melanoma) was > 100 µM and the TGI (OVCAR-4 ovarian) was > 100 µM. For the same compound, the TGI (SNB-75 CNS) was > 100 µM.
With CCOc1cccc2ccc[n+](CC)c12 the TGI (786-0 renal) was > 100 µM, the TGI (SNB-19 CNS) was > 100 µM and the TGI (K-562 leukemia) was > 100 µM. The TGI (HOP-92 NSCLC) was > 100 µM, the TGI (UACC-257 melanoma) was > 100 µM and the TGI (OVCAR-4 ovarian) was > 100 µM. The TGI (SNB-75 CNS) was > 100 µM.
COc1ccc(/C=N\Nc2ccc([N+](=O)[O-])cn2)cc1OC was tested, and the GI50 (786-0 renal) was 3.46 µM, the TGI (786-0 renal) was > 100 µM and the GI50 (SNB-19 CNS) was 27 µM. For the same compound, the TGI (SNB-19 CNS) was > 100 µM, the GI50 (K-562 leukemia) was > 100000 nM and the TGI (K-562 leukemia) was > 100 µM. The GI50 (HS 578T breast) was 21 µM, the TGI (HS 578T breast) was > 100 µM and the GI50 (UACC-257 melanoma) was > 100 µM. For the same compound, the TGI (UACC-257 melanoma) was > 100 µM, the GI50 (MDA-MB-435) was > 100 µM and the TGI (MDA-MB-435) was > 100 µM. For the same compound, the GI50 (SK-MEL-2 melanoma) was > 100 µM, the TGI (SK-MEL-2 melanoma) was > 100 µM and the GI50 (SNB-75 CNS) was 2900 nM. It also gave a TGI (SNB-75 CNS) of 16.4 µM.
Work on CC(C)(C)C1CCC2c3c([nH]c4ccccc34)C3C(=O)N(c4ccccc4)C(=O)C3C2C1 (stereo not given) yielded a TGI (786-0 renal) of 26 µM, a TGI (SNB-19 CNS) of 22.5 µM and a TGI (K-562 leukemia) of 15.8 µM. It also gave a TGI (OVCAR-4 ovarian) of 5.36 µM and a TGI (SNB-75 CNS) of 6.04 µM.
For Cn1c(=O)c2nc(-c3ccc(Cl)cc3)oc2n(C)c1=O, the TGI (786-0 renal) was > 100 µM, the TGI (SNB-19 CNS) was > 100 µM and the TGI (K-562 leukemia) was > 100 µM. For the same compound, the TGI (HOP-92 NSCLC) was > 100 µM, the TGI (UACC-257 melanoma) was > 100 µM and the TGI (SK-MEL-2 melanoma) was > 100 µM. For the same compound, the TGI (OVCAR-4 ovarian) was > 100 µM and the TGI (SNB-75 CNS) was > 100 µM.
O=Cc1ccc(-c2ccc(-c3nc4ccccc4o3)cc2)o1 was tested, and the GI50 (786-0 renal) was 24.4 µM, the TGI (786-0 renal) was 92.8 µM and the GI50 (SNB-19 CNS) was > 100 µM. For the same compound, the TGI (SNB-19 CNS) was > 100 µM, the GI50 (K-562 leukemia) was 23600 nM and the TGI (K-562 leukemia) was > 100 µM. For the same compound, the GI50 (UACC-257 melanoma) was 92.3 µM, the TGI (UACC-257 melanoma) was > 100 µM and the GI50 (MDA-MB-435) was 33.1 µM. For the same compound, the TGI (MDA-MB-435) was > 100 µM, the GI50 (SK-MEL-2 melanoma) was 66.4 µM and the TGI (SK-MEL-2 melanoma) was > 100 µM. For the same compound, the GI50 (OVCAR-4 ovarian) was > 100 µM, the TGI (OVCAR-4 ovarian) was > 100 µM and the GI50 (SNB-75 CNS) was 81900 nM. The TGI (SNB-75 CNS) was > 100 µM.
With O=c1c2cccc3cccc(c4n1CCN=4)c32 the TGI (786-0 renal) was > 100 µM, the TGI (K-562 leukemia) was > 100 µM and the TGI (HOP-92 NSCLC) was > 100 µM. The TGI (UACC-257 melanoma) was > 100 µM, the TGI (SK-MEL-2 melanoma) was > 100 µM and the TGI (OVCAR-4 ovarian) was > 100 µM. For the same compound, the TGI (SNB-75 CNS) was > 100 µM.
With CCOC(=N)/C(=C1\OC(N)=C(c2ccc(Cl)cc2)C1=O)c1ccc(Cl)cc1 the TGI (786-0 renal) was 32.7 µM, the TGI (SNB-19 CNS) was 49.9 µM and the TGI (K-562 leukemia) was 53.6 µM. The TGI (HOP-92 NSCLC) was 34 µM, the TGI (UACC-257 melanoma) was 35.1 µM and the TGI (OVCAR-4 ovarian) was 31.9 µM. It also gave a TGI (SNB-75 CNS) of 38.5 µM.
Cc1cc(C)c(Cn2cnc3c(Cl)ncnc32)c(C)c1CCl was tested, and the GI50 (786-0 renal) was > 100 µM, the TGI (786-0 renal) was > 100 µM and the GI50 (SNB-19 CNS) was > 100 µM. For the same compound, the TGI (SNB-19 CNS) was > 100 µM, the GI50 (K-562 leukemia) was 44200 nM and the TGI (K-562 leukemia) was > 100 µM. For the same compound, the GI50 (HS 578T breast) was > 100 µM, the TGI (HS 578T breast) was > 100 µM and the GI50 (MDA-MB-435) was > 100 µM. The TGI (MDA-MB-435) was > 100 µM, the GI50 (SK-MEL-2 melanoma) was > 100 µM and the TGI (SK-MEL-2 melanoma) was > 100 µM.
For C[N+](C)(C)CC(=O)N/N=C(\C(=O)NC1=C(Cl)C(=O)c2ccccc2C1=O)C(C#N)c1csc(-c2ccc([N+](=O)[O-])cc2)n1 (stereo not given), the TGI (786-0 renal) was > 100 µM, the TGI (SNB-19 CNS) was > 100 µM and the TGI (K-562 leukemia) was > 100 µM. The TGI (HOP-92 NSCLC) was > 100 µM, the TGI (UACC-257 melanoma) was > 100 µM and the TGI (SK-MEL-2 melanoma) was > 100 µM. For the same compound, the TGI (OVCAR-4 ovarian) was > 100 µM and the TGI (SNB-75 CNS) was > 100 µM.
For O=S1Nc2c(Cl)cc(Cl)c3c(Cl)cc(Cl)c(c23)N1, the TGI (786-0 renal) was 41.9 µM, the TGI (SNB-19 CNS) was > 100 µM and the TGI (K-562 leukemia) was > 100 µM. For the same compound, the TGI (HOP-92 NSCLC) was 51 µM, the TGI (UACC-257 melanoma) was > 100 µM and the TGI (SK-MEL-2 melanoma) was > 100 µM. For the same compound, the TGI (OVCAR-4 ovarian) was 91.2 µM and the TGI (SNB-75 CNS) was 55.3 µM.
For CCCN(CCCC(NC(C)=O)C(=O)NCc1ccccc1)C(=O)NCCCl (stereo not given), the TGI (786-0 renal) was > 100 µM, the TGI (SNB-19 CNS) was > 100 µM and the TGI (K-562 leukemia) was > 100 µM. For the same compound, the TGI (HOP-92 NSCLC) was > 100 µM, the TGI (UACC-257 melanoma) was > 100 µM and the TGI (SK-MEL-2 melanoma) was > 100 µM. For the same compound, the TGI (OVCAR-4 ovarian) was > 100 µM and the TGI (SNB-75 CNS) was > 100 µM.
CSc1n[n+]2c(s1)SCCC2 was tested, and the TGI (786-0 renal) was > 100 µM, the TGI (SNB-19 CNS) was > 100 µM and the TGI (K-562 leukemia) was > 100 µM. For the same compound, the TGI (HOP-92 NSCLC) was > 100 µM, the TGI (UACC-257 melanoma) was > 100 µM and the TGI (OVCAR-4 ovarian) was > 100 µM. The TGI (SNB-75 CNS) was > 100 µM.
With CC(=O)OC1CC2C(C)(C)C(=O)C=C[C@]2(C)C2CCC3(C)C(=CC(=O)C3c3ccoc3)[C@]12C (stereo not given in full) the TGI (786-0 renal) was 31.1 µM, the TGI (SNB-19 CNS) was 29.2 µM and the TGI (K-562 leukemia) was > 100 µM. For the same compound, the TGI (HOP-92 NSCLC) was 45.6 µM, the TGI (UACC-257 melanoma) was 48.2 µM and the TGI (SK-MEL-2 melanoma) was 34.5 µM. For the same compound, the TGI (OVCAR-4 ovarian) was 50.5 µM and the TGI (SNB-75 CNS) was 36.1 µM.
With COc1cc(CNc2ccccc2C(=O)N2CCN(C(=O)c3cc(-c4cc(OC)c(OC)c(OC)c4)n4nc(-c5ccccc5)cc4n3)CC2)cc(OC)c1OC the GI50 (786-0 renal) was 4.49 µM, the TGI (786-0 renal) was > 100 µM and the GI50 (SNB-19 CNS) was 6.73 µM. The TGI (SNB-19 CNS) was > 100 µM, the GI50 (K-562 leukemia) was 1560 nM and the TGI (K-562 leukemia) was > 100 µM. For the same compound, the GI50 (HS 578T breast) was 3.8 µM, the TGI (HS 578T breast) was > 100 µM and the GI50 (UACC-257 melanoma) was 4.97 µM. The TGI (UACC-257 melanoma) was > 100 µM, the GI50 (SK-MEL-2 melanoma) was 4.37 µM and the TGI (SK-MEL-2 melanoma) was > 100 µM. The GI50 (OVCAR-4 ovarian) was 4.37 µM, the TGI (OVCAR-4 ovarian) was > 100 µM and the GI50 (SNB-75 CNS) was 1980 nM. The TGI (SNB-75 CNS) was > 100 µM.
Cc1cn2c(/C=N/N=C(N)N)c(-c3cccs3)nc2s1 showed a GI50 (786-0 renal) of 2.42 µM, a TGI (786-0 renal) of 6.06 µM and a GI50 (SNB-19 CNS) of 11.9 µM. It also gave a TGI (SNB-19 CNS) of 35.8 µM, a GI50 (K-562 leukemia) of 2060 nM and a TGI (K-562 leukemia) of 5.43 µM. It also gave a GI50 (HS 578T breast) of 11.4 µM, a TGI (HS 578T breast) of 32.6 µM and a GI50 (UACC-257 melanoma) of 2.54 µM. The TGI (UACC-257 melanoma) was 6.14 µM, the GI50 (MDA-MB-435) was 4.96 µM and the TGI (MDA-MB-435) was 18.5 µM. For the same compound, the GI50 (SK-MEL-2 melanoma) was 28.8 µM and the TGI (SK-MEL-2 melanoma) was > 100 µM.
